Experiment: Partition coefficient (Log Po/w) of direct dyes
Conditions: octanol/water partition coefficient

Log Po/w value | Molecule
around −2.31 | Cn1cc[n+](C)c1N=Nc1ccc(N)cc1.[Cl-] [BASIC ORANGE 31, Basic Orange 31]
around −1.97 | CN(C)c1ccc(/N=N/c2n(C)cc[n+]2C)cc1 [BASIC RED 51, Basic Red 51]
around −1.67 | CN(N=Cc1cc[n+](C)cc1)c1ccccc1 [BASIC YELLOW 87, Basic Yellow 87]

Same assay, conditions: octanol/water partition coefficient, table of dyes

Log Po/w | Molecule
0.21 | O=[N+]([O-])c1cc(O)ccc1NCCO [3-NITRO-P-HYDROXYETHYLAMINOPHENOL]
1.19 | Nc1ccc(O)cc1[N+](=O)[O-] [4-AMINO-3-NITROPHENOL]
1.2 | Nc1c(N=Nc2ccc([N+](=O)[O-])cc2)c(S(=O)(=O)[O-])cc2cc(S(=O)(=O)[O-])c(N=Nc3ccccc3)c(O)c12.[Na+].[Na+] [ACID BLACK 1]
−0.32 | CCN(Cc1cccc(S(=O)(=O)[O-])c1)c1ccc(C(=C2C=CC(=[N+](CC)Cc3cccc(S(=O)(=O)[O-])c3)C=C2)c2ccccc2S(=O)(=O)[O-])cc1.[Na+].[Na+] [ACID BLUE 9]
5.71 | Cc1ccc(Nc2ccc(Nc3ccc(C)cc3S(=O)(=O)[O-])c3c2C(=O)c2ccccc2C3=O)c(S(=O)(=O)[O-])c1.[Na+].[Na+] [ACID GREEN 25]
1.4 | O=S(=O)([O-])c1ccc(N=Nc2c(O)ccc3ccccc23)cc1.[Na+] [ACID ORANGE 7]
1.63 | O=S(=O)(O)c1cc(S(=O)(=O)O)c2c(/N=N\c3ccc(S(=O)(=O)O)c4ccccc34)c(O)ccc2c1 [ACID RED18]
0.5 | Nc1cc(S(=O)(=O)[O-])cc2cc(S(=O)(=O)[O-])c(N=Nc3ccccc3)c(O)c12.[Na+].[Na+] [ACID RED 33]
1.3 | CCN(CC)c1ccc2c(-c3ccc(S(=O)(=O)[O-])cc3S(=O)(=O)[O-])c3ccc(=[N+](CC)CC)cc-3oc2c1.[Na+] [ACID RED 52]
−10.17 | O=C([O-])C1=NN(c2ccc(S(=O)(=O)[O-])cc2)C(=O)C1N=Nc1ccc(S(=O)(=O)[O-])cc1.[Na+].[Na+].[Na+] (centres unmarked) [ACID YELLOW 23]
3.1 | Cc1ccc(Nc2ccc(O)c3c2C(=O)c2ccccc2C3=O)c(S(=O)(=O)[O-])c1.[Na+] [ACIDE VIOLET 43]
1.88 | C[N+](C)(C)c1cccc(N=C2C=C(N)c3c(O)c(Br)cc(N)c3C2=O)c1.[Cl-] [BASIC BLUE 99]
−0.15 | C[N+](C)(C)c1ccc2ccc(O)c(N=Nc3ccc(N)c([N+](=O)[O-])c3)c2c1.[Cl-] [BASIC BROWN 17]
−2.31 | Cn1cc[n+](C)c1N=Nc1ccc(N)cc1.[Cl-] [BASIC ORANGE 31, Basic Orange 31]
−1.97 | CN(C)c1ccc(/N=N/c2n(C)cc[n+]2C)cc1 [BASIC RED 51, Basic Red 51]
0.06 | CC1=NN(c2ccccc2)C(=O)C1N=Nc1cccc([N+](C)(C)C)c1.[Cl-] (centres unmarked) [BASIC YELLOW 57]
−1.69 | CN(N=Cc1cc[n+](C)cc1)c1ccccc1 [BASIC YELLOW 87, Basic Yellow 87]
3 | Nc1ccc(N)c2c1C(=O)c1ccccc1C2=O [DISPERSE VIOLET 1]
−0.32 | O=[N+]([O-])c1cc(N(CCO)CCO)ccc1NCCO [HC BLUE NO. 2]
2.09 | O=C1c2ccccc2C(=O)c2c(NCC(O)CO)ccc(NCC(O)CO)c21 (centres unmarked) [HC BLUE NO. 14]
3.47 | CC1=CC(=C(c2cc(C)c(N)c(C)c2)c2c(Cl)cccc2Cl)C=C(C)C1=N.O=P(O)(O)O [HC BLUE NO. 15]
0.13 | NCCNc1ccc(OCCO)cc1[N+](=O)[O-] [HC ORANGE NO. 2]
−0.42 | Nc1ccc(NCCO)c([N+](=O)[O-])c1 [HC RED NO. 3]
0.67 | Cc1cc(N)c([N+](=O)[O-])cc1NCCO [HC VIOLET NO 1]
0.608 | O=[N+]([O-])c1cc(N(CCO)CCO)ccc1NCCCO [HC VIOLET NO 2]
2.59 | Cc1cc(N(CCO)CCO)ccc1N=Nc1ccc(N)cc1 [HC YELLOW NO. 7]
1.3 | COc1ccc([N+](=O)[O-])c(NCCN)c1.Cl [HC YELLOW NO. 9]
0.89 | COS(=O)(=O)[O-].C[N+]1(CCCNc2ccc(O)c3c2C(=O)c2ccccc2C3=O)CCOCC1 [HYDROXYANTHRAQUINONEAMINO-PROPYL METHYL MORPHOLINIUM METHOSULFATE]
−1.05 | ACID YELLOW 3
0.13 | HC RED NO. 7

Molecule | Log Po/w
CNc1cc(OCC(O)CO)ccc1[N+](=O)[O-] (centres unmarked) [2-NITRO-5-GLYCERYL METHYLANILINE] | 0.89
O=C([O-])c1c(Cl)c(Cl)c(Cl)c(Cl)c1-c1c2cc(Br)c(=O)c(Br)c-2oc2c(Br)c([O-])c(Br)cc12.[Na+].[Na+] [ACIDE RED 92] | 3
